Source: US10017524B2, “Compound and pharmaceutical composition for neuropsychological disorder or malignant tumor” (KYOTO UNIVERSITY, priority 2012, dated 2018)

Key:
[1] = tested on: MDA-MB-453 human breast cancer cells (triple-negative); assay: Growth inhibition, adherent and non-adherent culture (Alamar Blue); type: cell-based; settings: MDA-MB-453, cells cultured to prevent adhering
Experimental: (§1) Specifically, the cells were seeded on a 24 Well plate, and the compounds at a predetermined concentration were added. After cultivation for 5 days, the number of cells was calculated by detecting the fluorescence intensity with Alamar Blue. The culture medium containing the compounds was replaced every day. FIGS. 10 to 12 show an example of the results.
(§2) In addition, the effect was also confirmed when the target cells were cultured to prevent them from adhering to each other.

[2] = tested on: MDA-MB-468 human breast cancer cells (triple-negative); assay: as above; type: cell-based; settings: MDA-MB-468, cells cultured to prevent adhering
Experimental: as §1, §2

[3] = tested on: Down's syndrome-derived acute megakaryoblastic leukemia (AMKL) cells KPAM1; assay: Inhibition of growth of cancer cells (Alamar Blue); type: cell-based; settings: KPAM1, cultivation for 5 days
Experimental: as §1

[4] = tested on: retinoblastoma cell lines WERI; assay: Inhibition of growth of cancer cells (Alamar Blue); type: cell-based
Experimental: as §1

[5] = tested on: human lung adenocarcinoma-derived cell lines (PC-9); assay: Growth inhibition, microscopic observation; type: cell-based; settings: PC-9 lines, microscope
[6] = tested on: PC-9-GR-high lines; assay: Growth inhibition, microscopic observation; type: cell-based, human; settings: microscope
[7] = tested on: PC-9-GR-step lines (gefitinib-resistant sub-lines of PC-9); assay: Growth inhibition, microscopic observation; type: cell-based, human; settings: microscope
[8] = tested on: phosphorylation of a threonine residue at position 212 of tau protein by DYRK1A protein; assay: Inhibitory activity on phosphorylation of tau protein in cultured cells expressing tau and DYRK1A (western blot, Thr212); type: cell-based; settings: compounds of 10 μM, phospho-Thr212 tau, cells expressing tau and DYRK1A
Experimental: The inhibitory activity of the compounds synthesized in the production examples on the phosphorylation of tau protein was evaluated by an evaluation system using the following cultured cells.
The cultured cells that can induce the expressions of tau protein and DYRK1A protein individually and that allow the phosphorylation of the tau protein to be evaluated depending on the activity of the DYRK1A protein were used in the evaluation system. […] Therefore, the inhibitory activity on the phosphorylation of the tau protein can be evaluated by inducing the expressions of both the tau protein and the DYRK1A protein, and evaluating the degree of phosphorylation of a threonine residue at position 212 of the tau protein.
The compounds 1, 4, and 6 to 9 (10 μM) were added to the evaluation system, and the phosphorylation of the tau protein was detected with the antibody that specifically recognizes the phosphorylation of a threonine residue at position 212 of the tau protein. […] The “control” represents the result of adding no compound.
The inhibitory activity of the compounds 1 and 2 on the phosphorylation of tau protein was evaluated in the same manner as the Experimental example 1.
The “control” represents the result of adding no compound.
The inhibitory activity of the compounds 3, 6, and 9 to 15 on the phosphorylation of tau protein was evaluated in the same manner as the experimental example 1. FIGS. 7 to 9 show an example of the results.

## CCN1/C(=C/C(C)=O)Sc2ccc3oc4ccccc4c3c21 [Compound 3, (Z)-1-[1-ethylbenzo[2,3]benzofuro[4,5-d]thiazol-2(1H)-ylidene]propan-2-one]
[1]
  inhibitory effect on the anchorage-independent growth: inhibitory effect
[2]
  inhibitory effect on the anchorage-independent growth: inhibitory effect
[3]
  inhibitory effect on the growth of the cancer cells: excellent inhibitory effect
[4]
  inhibitory effect on the growth of the cancer cells: inhibitory effect
[5]
  apoptosis-inducing activity on the cancer cells: excellent apoptosis-inducing activity
[6]
  apoptosis-inducing activity on the cancer cells: excellent apoptosis-inducing activity
[7]
  apoptosis-inducing activity on the cancer cells: excellent apoptosis-inducing activity
[8]
  inhibitory effect on the phosphorylation of the tau protein: inhibitory effect
